Results as given in patent US20240226100A1, “CONTROL OF PROTEIN EXPRESSION WITH TMP-PROTAC COMPOUNDS” (THE TRUSTEES OF THE UNIVERSITY OF PENNSYLVANIA, priority 2021, published 2024).

Experiments:
[1] = test system: eDHFR-Luc; experiment: Degradation of luciferase in Jurkat-DL cells, luminescence; format: cell-based, Escherichia coli; conditions: 4, 8 and 18 h, varying doses
[2] = test system: eDHFR-YFP; experiment: Degradation of YFP in HEK293T-DYL cells, flow cytometry; format: cell-based, Escherichia coli; conditions: 72 and 96 h, varying doses
Excerpt: The left panel represents the mean YFP fluorescence and the right panel represents the same data in percent of maximum YFP fluorescence normalized to HEK293T-DYL treated with DMSO.

[3] = test system: eDHFR-Lck fusion protein; experiment: Dose response in HEK293T eDHFR-Lck cells, Western blot; format: cell-based, Escherichia coli; conditions: 24 h
[4] = test system: TNFα; experiment: Cytokine release assay, TNFα ELISA of killing assay supernatant; format: cell-based, human
Method: The concentration of TNF-α and IFN-g in the supernatants following killing assay was determined by ELISA.

[5] = test system: eDHFR-Luc; experiment: Time course in OVCAR8 eDHFR-Luc cells, luminescence; format: cell-based, Escherichia coli; conditions: between 390 and 24 nM
Method: OVCAR8^eDHR-luc+ cells were plated in black wall/clear bottom (Falcon) 96-well plates (4×10^4 cells/well) in 200 uL of complete media and incubated with serially diluted compound 7c at −48, −24, −12, −8 and −4 h and analyzed together at 0 h (t=0). Luciferin is prepared to 1× with complete media and 50 uL of Luciferin solution is added to the cells which are then analyzed by plate reader (ThermoFisher Varioskan Plusplate).
After the addition of Luciferin/complete media solution, luminescence was measured at the same time (t=0) by plate reader. 90% degradation of eDHFR-luc measured in 12 h between 390 and 24 nM, and 95% degradation of eDHFR-luc measured in 24 h between 390 and 24 nM.

[6] = test system: FAP-eDHFR DF CAR T cells; experiment: In vitro killing assay of FAP-eDHFR DF CAR T cells against I45 huFAP-Luc target cells
[7] = test system: FAP CAR-eDHFR direct fusion (DF); experiment: Dose response of surface CAR expression in primary human FAP-eDHFR DF CAR T cells, flow cytometry; format: cell-based; conditions: for degradation / downregulation of CAR molecules from the surface of CAR T cells: primary human FAP-eDHFR CAR T cells
Method: Generated CAR T cells were pelleted, resuspended in 2% BSA in PBS (Invitrogen), and incubated with Alexa Fluor® 647 AffiniPure F(ab′2) fragment goat anti-mouse IgG (Jackson ImmunoResearch Laboratories) for 30 minutes at room temperature. Stained cells were washed 3 times with PBS, and were analyzed on a flow cytometer (LSR II, BD Biosciences) for CAR and/or BFP expression. All flow data were analyzed using FlowJo software (FlowJo).
Following incubation, the cells were washed and stained with Alexa Fluor® 647 AffiniPure F(ab′2) fragment goat anti-mouse IgG (Jackson ImmunoResearch Laboratories) as described under “Flow Cytometry”, and their surface expression was analyzed on a flow cytometer (LSR II, BD Biosciences).
Data plotted as raw CAR stain fluorescence is shown in the left panel and percent of maximum CAR expression is shown in the right panel.
Values are reported as percent of maximum CAR expression (i.e. relative to CAR T cells that were treated with vehicle control). Each color represents a different donor (n=3).

[8] = test system: eDHFR-YFP; experiment: Time and dose-dependent degradation of YFP in Jurkat-DYL / Jurkat eDHFR-YFP+ cells, flow cytometry; format: cell-based, Escherichia coli
Method: Likewise, Jurkat eDHFR-YFP (Jurkat^eDHFR-YFP+) cells are seeded in clear (Falcon) 12-well plates (3×10^5 cells/well) in complete media. […]

[9] = test system: FAP CAR-eDHFR direct fusion (DF); experiment: Washout kinetic assay of CAR expression in primary human FAP-eDHFR DF CAR T cells; format: cell-based; conditions: 100 nM, washout after 24 h
Method: Following a 24 hour incubation with TMP-POM 7c, the remaining cells were washed multiple times with […] (Corning) to remove the drug, returned to culture in a new 12-well plate, and then again sampled serially at different time points following the wash (3, 6, 24, 48, and 72 hours post-washout). All cells were stained for CAR and fixed in 4% following sampling, and were analyzed on a flow cytometer (LSR II, BD Biosciences).
Following 24-hour incubation with TMP-POM 7c, the cells were washed multiple times to remove the drug (red arrow), seeded on a new plate, and then again sampled serially following the drug washout. All cells were stained for CAR and fixed in 4% following sampling.

## COc1cc(Cc2cnc(N)nc2N)cc(OC)c1OCCCC(=O)NCCOCCOCCNc1cccc2c1C(=O)N(C1CCC(=O)NC1=O)C2=O (stereo not shown) [Compound 7c, 4-(4-((2,4-diaminopyrimidin-5-yl)methyl)-2,6-dimethoxyphenoxy)-N-(2-(2-(2-((2-(2,6-dioxopiperidin-3-yl)-1,3-dioxoisoindolin-4-yl)amino)ethoxy)ethoxy)ethyl)butanamide]
[1]
  degradation of luciferase: degraded
[2]
  degradation of YFP: degraded
[3]
  concentration of optimal degradation of eDHFR-Lck fusion protein: 97 nM
[4]; different concentrations, 10:1 E:T
  TNFα secretion across concentrations: inhibition of CAR T cell signaling
[4]; supernatant of killing assay, 100 nM compound
  T cell TNF-α release: inhibits
[5]; 12 h
  degradation of eDHFR-luc: 90%
[5]; 24 h
  degradation of eDHFR-luc: 95%
[6]; CAR T cells pre-incubated 24 h with 100 nM compound, varying E:T ratios
  cytotoxic function of FAP-eDHFR CAR T cells against FAP-expressing target cells: inhibition of their cytotoxic function
[6]; pre-incubated overnight at different concentrations, 10:1 E:T
  cytotoxic activity of FAP-eDHFR DF CAR T cells across concentrations: tunable in a dose-dependent manner
[7]; as early as 4 hours post-incubation, relative to vehicle control
  CAR expression remaining, percent of maximum CAR expression: 20 % of maximum CAR expression
[7]
  degradation / downregulation of CAR molecules from the surface of CAR T cells: leads to degradation of CAR molecules from the surface of CAR T cells
[7]; listed as TMP-POM 7c
  degradation / downregulation of CAR molecules from the surface of CAR T cells: effectively downregulates CAR in a dose-dependent and reversible manner
[8]; Jurkat eDHFR-YFP+, as early as 4 h
  YFP remaining, % of maximum (no drug control): 20 % of maximum
[8]; Jurkat-DYL, 4, 8 and 18 h incubation, varying doses
  degradation of YFP (eDHFR fusion protein): degrade eDHFR fusion proteins to low/no functional expression
[9]
  time following washout for CAR expression to return to baseline: ~72 h
  time following washout for CAR expression to start recovering: around 24 hours
